Measurements as given in article PMC4929832 (Nature, 2016).

How the values were obtained:
FMS = FMS (Homo sapiens, UniProt P07333); experiment: kinase panel; assay type: biochemical
FYN = FYN (Homo sapiens, UniProt P06241); experiment: kinase panel; assay type: biochemical
PDGFR-ALPHA = PDGFR-ALPHA (Homo sapiens, UniProt P16234); experiment: kinase panel; assay type: biochemical
ALK6 = ALK6 (Homo sapiens, UniProt O00238); experiment: kinase panel; assay type: biochemical
CLK2 = CLK2 (Homo sapiens, UniProt P49760); experiment: kinase panel; assay type: biochemical
GRK7 = GRK7 (Homo sapiens, UniProt Q8WTQ7); experiment: kinase panel; assay type: biochemical
HCK = HCK (Homo sapiens, UniProt P08631); experiment: kinase panel; assay type: biochemical
HIPK1 = HIPK1 (Homo sapiens, UniProt Q86Z02); experiment: kinase panel; assay type: biochemical
PI3K-DELTA = PI3K-DELTA (Homo sapiens, UniProt O00329); experiment: kinase panel; assay type: biochemical
DAPK3 = DAPK3 (Homo sapiens, UniProt O43293); experiment: kinase panel; assay type: biochemical
HIPK2 = HIPK2 (Homo sapiens, UniProt Q9H2X6); experiment: kinase panel; assay type: biochemical
MET = MET (Homo sapiens, UniProt P08581); experiment: kinase panel; assay type: biochemical
PIM1 = PIM1 (Homo sapiens, UniProt P11309); experiment: kinase panel; assay type: biochemical
BRSK1 = BRSK1 (Homo sapiens, UniProt Q8TDC3); experiment: kinase panel; assay type: biochemical
EPH-A1 = EPH-A1 (Homo sapiens, UniProt P21709); experiment: kinase panel; assay type: biochemical
Sequence of EPH-A1 (P21709 26-976): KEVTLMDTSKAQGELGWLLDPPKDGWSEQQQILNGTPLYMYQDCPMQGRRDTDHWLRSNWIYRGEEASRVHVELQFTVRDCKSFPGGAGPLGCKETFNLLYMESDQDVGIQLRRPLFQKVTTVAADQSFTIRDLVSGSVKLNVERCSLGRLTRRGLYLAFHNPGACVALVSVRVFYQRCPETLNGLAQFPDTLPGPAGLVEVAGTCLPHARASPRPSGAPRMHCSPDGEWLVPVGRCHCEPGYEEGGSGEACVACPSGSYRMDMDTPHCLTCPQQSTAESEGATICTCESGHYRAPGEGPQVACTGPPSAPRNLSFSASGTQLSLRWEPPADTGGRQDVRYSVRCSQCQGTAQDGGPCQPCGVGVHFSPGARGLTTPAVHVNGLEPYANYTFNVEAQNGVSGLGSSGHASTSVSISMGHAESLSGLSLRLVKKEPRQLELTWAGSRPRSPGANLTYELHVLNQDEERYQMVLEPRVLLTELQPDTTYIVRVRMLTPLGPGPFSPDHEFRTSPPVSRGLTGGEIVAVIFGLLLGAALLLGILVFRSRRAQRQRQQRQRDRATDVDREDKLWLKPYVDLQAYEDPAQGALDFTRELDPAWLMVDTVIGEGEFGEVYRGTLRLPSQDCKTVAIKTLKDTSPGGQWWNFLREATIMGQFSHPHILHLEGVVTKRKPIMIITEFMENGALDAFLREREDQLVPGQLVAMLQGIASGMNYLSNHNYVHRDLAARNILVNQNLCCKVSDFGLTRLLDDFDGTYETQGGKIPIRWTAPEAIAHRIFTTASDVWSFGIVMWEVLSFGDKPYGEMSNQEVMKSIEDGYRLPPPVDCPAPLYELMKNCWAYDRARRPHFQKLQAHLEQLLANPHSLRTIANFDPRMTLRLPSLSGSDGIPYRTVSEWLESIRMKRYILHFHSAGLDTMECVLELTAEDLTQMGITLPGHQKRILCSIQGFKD

MST1 = MST1 (Homo sapiens, UniProt Q13043); experiment: kinase panel; assay type: biochemical
Sequence of MST1 (Q13043 whole entry): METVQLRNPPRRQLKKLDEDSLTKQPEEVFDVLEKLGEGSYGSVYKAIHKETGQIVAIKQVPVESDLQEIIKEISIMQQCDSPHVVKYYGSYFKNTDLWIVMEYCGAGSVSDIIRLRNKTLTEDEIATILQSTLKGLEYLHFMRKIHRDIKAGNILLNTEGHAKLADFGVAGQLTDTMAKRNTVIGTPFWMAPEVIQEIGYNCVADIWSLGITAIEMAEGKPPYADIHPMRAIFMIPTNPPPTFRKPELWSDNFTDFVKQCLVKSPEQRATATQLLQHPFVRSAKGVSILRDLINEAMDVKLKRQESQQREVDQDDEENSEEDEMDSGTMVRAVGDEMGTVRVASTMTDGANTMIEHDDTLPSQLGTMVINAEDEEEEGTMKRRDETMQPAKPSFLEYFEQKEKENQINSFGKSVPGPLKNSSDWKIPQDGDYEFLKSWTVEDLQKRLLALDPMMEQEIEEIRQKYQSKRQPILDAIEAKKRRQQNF

STK16 = STK16 (Homo sapiens, UniProt O75716); experiment: kinase panel; assay type: biochemical
IRAK4 = IRAK4 (Homo sapiens, UniProt Q9NWZ3); experiment: kinase panel; assay type: biochemical
MST3 = MST3 (Homo sapiens, UniProt Q9Y6E0); experiment: kinase panel; assay type: biochemical
Sequence of MST3 (Q9Y6E0 whole entry): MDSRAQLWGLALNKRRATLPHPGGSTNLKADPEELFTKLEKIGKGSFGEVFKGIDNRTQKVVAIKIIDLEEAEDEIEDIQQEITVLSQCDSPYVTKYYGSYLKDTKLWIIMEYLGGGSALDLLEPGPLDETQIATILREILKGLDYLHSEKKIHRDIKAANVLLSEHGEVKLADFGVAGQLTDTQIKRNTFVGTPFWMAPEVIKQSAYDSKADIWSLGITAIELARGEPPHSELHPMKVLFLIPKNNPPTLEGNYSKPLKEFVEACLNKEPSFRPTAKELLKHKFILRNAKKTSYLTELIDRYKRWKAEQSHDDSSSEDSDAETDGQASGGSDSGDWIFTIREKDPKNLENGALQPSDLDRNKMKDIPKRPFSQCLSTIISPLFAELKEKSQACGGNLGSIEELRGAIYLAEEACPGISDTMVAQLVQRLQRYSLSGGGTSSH

PKC-IOTA = PKC-IOTA (Homo sapiens, UniProt P41743); experiment: kinase panel; assay type: biochemical
MUSK = MUSK (Homo sapiens, UniProt O15146); experiment: kinase panel; assay type: biochemical
Sequence of MUSK (O15146 24-869): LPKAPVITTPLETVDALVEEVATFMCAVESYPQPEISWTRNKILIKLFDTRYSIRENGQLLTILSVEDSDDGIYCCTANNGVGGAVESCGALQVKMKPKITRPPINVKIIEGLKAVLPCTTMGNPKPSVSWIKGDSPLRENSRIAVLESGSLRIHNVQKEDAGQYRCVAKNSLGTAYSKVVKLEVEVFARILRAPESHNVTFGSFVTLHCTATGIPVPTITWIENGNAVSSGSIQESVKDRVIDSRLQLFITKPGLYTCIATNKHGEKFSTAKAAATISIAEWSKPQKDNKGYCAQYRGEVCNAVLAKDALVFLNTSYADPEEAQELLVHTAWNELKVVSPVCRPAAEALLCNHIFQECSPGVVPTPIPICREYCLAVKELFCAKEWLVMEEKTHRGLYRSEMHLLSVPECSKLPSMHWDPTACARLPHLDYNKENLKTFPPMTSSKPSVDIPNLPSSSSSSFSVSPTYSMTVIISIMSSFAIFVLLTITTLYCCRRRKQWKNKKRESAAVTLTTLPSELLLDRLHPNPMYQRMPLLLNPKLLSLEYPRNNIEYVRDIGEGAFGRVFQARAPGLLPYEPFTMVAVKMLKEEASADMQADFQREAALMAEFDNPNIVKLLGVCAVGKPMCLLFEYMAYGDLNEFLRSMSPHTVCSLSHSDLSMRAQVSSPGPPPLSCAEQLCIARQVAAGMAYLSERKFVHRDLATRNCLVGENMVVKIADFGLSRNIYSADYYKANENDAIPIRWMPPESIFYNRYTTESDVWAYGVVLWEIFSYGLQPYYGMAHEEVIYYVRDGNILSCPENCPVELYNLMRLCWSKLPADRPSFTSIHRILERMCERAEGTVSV

TAOK3 = TAOK3 (Homo sapiens, UniProt Q9H2K8); experiment: kinase panel; assay type: biochemical
EPH-A8 = EPH-A8 (Homo sapiens, UniProt P29322); experiment: kinase panel; assay type: biochemical
NDR1 = NDR1 (Homo sapiens, UniProt Q15208); experiment: kinase panel; assay type: biochemical
TEC = TEC (Homo sapiens, UniProt P42680); experiment: kinase panel; assay type: biochemical
Sequence of TEC (P42680 whole entry): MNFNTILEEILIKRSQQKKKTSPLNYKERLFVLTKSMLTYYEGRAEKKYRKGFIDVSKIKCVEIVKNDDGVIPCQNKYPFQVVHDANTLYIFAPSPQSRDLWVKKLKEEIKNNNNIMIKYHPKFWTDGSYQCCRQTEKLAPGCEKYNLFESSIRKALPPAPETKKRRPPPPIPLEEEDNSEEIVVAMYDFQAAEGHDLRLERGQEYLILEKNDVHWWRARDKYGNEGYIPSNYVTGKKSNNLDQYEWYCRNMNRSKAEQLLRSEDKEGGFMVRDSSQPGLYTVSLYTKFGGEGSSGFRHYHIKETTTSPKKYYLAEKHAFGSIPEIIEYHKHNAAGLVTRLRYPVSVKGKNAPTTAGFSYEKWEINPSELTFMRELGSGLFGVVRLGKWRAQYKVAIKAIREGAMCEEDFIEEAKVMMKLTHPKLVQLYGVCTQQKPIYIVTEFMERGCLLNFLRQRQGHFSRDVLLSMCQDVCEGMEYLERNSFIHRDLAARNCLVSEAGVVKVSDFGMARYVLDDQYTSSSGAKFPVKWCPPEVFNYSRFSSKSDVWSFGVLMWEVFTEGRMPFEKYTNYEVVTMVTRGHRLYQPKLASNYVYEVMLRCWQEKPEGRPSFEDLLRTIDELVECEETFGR

TIE2 = TIE2 (Homo sapiens, UniProt Q02763); experiment: kinase panel; assay type: biochemical
EPH-B3 = EPH-B3 (Homo sapiens, UniProt P54753); experiment: kinase panel; assay type: biochemical
CDK2-CYCLINA = CDK2-CYCLINA (Homo sapiens, UniProt P24941); experiment: kinase panel; assay type: biochemical
PLK4 = PLK4 (Homo sapiens, UniProt O00444); experiment: kinase panel; assay type: biochemical
FER = FER (Homo sapiens, UniProt P16591); experiment: kinase panel; assay type: biochemical
PRKD1 = PRKD1 (Homo sapiens, UniProt Q15139); experiment: kinase panel; assay type: biochemical
PRKD3 = PRKD3 (Homo sapiens, UniProt O94806); experiment: kinase panel; assay type: biochemical
TSSK2 = TSSK2 (Homo sapiens, UniProt Q96PF2); experiment: kinase panel; assay type: biochemical
LRRK2-G2019S = LRRK2-G2019S (Homo sapiens, UniProt Q5S007, G2019S); experiment: kinase panel; assay type: biochemical
PTK5 = PTK5 (Homo sapiens, UniProt P42685); experiment: kinase panel; assay type: biochemical
Sequence of PTK5 (P42685 whole entry): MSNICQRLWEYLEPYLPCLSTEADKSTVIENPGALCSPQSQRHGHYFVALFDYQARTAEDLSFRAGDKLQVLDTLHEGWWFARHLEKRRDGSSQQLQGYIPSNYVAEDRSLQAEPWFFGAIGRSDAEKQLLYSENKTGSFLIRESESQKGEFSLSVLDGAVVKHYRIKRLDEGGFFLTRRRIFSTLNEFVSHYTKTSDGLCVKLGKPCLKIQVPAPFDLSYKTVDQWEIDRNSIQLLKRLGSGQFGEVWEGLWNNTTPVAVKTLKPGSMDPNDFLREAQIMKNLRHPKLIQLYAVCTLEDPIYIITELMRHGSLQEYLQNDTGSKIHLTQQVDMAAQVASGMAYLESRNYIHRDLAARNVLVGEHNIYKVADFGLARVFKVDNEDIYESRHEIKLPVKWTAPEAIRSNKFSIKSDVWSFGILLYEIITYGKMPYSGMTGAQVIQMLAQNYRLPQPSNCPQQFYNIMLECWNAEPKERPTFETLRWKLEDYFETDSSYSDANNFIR

FLT-1 = FLT-1 (Homo sapiens, UniProt P17948); experiment: kinase panel; assay type: biochemical
MAP4K2 = MAP4K2 (Homo sapiens, UniProt Q12851); experiment: kinase panel; assay type: biochemical
Adenosine 3 receptor = Adenosine 3 receptor (Homo sapiens, UniProt P0DMS8); experiment: Adenosine 3 receptor binding assay
[1] = target: Beta 1 adrenergic receptor (Homo sapiens, UniProt P08588); experiment: Beta 1 adrenergic receptor assay; assay type: binding
Monoamine Oxidase A = Monoamine Oxidase A (Homo sapiens, UniProt P21397); experiment: Monoamine Oxidase A assay; assay type: biochemical
Sequence of Monoamine Oxidase A (P21397 whole entry): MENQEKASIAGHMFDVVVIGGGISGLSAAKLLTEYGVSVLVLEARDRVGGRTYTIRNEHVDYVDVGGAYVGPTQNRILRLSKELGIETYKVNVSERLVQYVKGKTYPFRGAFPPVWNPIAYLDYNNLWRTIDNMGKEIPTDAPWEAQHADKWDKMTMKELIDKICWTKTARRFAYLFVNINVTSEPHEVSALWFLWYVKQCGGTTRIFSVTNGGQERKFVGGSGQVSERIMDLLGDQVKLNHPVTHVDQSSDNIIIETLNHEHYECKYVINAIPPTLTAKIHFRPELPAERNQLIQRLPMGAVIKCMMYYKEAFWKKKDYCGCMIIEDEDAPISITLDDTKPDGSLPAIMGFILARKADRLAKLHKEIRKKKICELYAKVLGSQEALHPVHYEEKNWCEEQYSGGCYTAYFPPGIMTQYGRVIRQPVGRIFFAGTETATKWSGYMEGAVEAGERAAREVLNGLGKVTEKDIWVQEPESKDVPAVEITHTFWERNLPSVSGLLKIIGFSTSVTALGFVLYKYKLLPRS

Nicotinic (CNS) Receptor = experiment: Nicotinic; assay type: binding; conditions: human IMR32 cells
[2] = target: Pregnane X Receptor (PXR; SXR) (Homo sapiens, UniProt O75469); experiment: Pregnane X Receptor; assay type: binding
Serotonin 5HT2A = Serotonin 5HT2A (Homo sapiens, UniProt P28223); experiment: Serotonin 5HT2A calcium flux assay; assay type: cell-based
Sequence of Serotonin 5HT2A (P28223 whole entry): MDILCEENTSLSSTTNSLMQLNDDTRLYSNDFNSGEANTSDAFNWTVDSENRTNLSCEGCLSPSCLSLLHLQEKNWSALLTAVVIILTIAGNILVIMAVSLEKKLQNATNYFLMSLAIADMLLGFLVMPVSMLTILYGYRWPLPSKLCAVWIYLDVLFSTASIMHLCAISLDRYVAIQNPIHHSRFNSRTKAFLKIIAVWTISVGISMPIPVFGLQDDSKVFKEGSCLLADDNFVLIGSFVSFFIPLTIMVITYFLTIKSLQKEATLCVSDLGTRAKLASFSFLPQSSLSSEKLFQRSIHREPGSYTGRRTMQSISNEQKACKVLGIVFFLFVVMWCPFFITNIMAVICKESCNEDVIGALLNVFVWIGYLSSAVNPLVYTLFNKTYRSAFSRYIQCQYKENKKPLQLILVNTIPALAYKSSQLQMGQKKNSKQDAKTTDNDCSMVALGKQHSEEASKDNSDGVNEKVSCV

[3] = test system: L858R/T790M-mutant lung cancer (genetically engineered mice); experiment: Mouse efficacy study, tumor volume by MRI; assay type: in vivo; conditions: EAI045 alone 60 mg/kg oral once daily, 4 weeks

inhibition at 1 µM (FMS): 0% | inhibition at 1 µM (FYN): 0% | inhibition at 1 µM (PDGFR-ALPHA): 0% | inhibition at 1 µM (ALK6): 0% | inhibition at 1 µM (CLK2): 1% | inhibition at 1 µM (GRK7): 0% | inhibition at 1 µM (HCK): 0% | inhibition at 1 µM (HIPK1): 1% | inhibition at 1 µM (PI3K-DELTA): 0% | inhibition at 1 µM (DAPK3): 1% | inhibition at 1 µM (HIPK2): 2% | inhibition at 1 µM (MET): 0% | inhibition at 1 µM (PIM1): 0% | inhibition at 1 µM (BRSK1): 0% | inhibition at 1 µM (EPH-A1): 0% | inhibition at 1 µM (MST1): 0% | inhibition at 1 µM (STK16): 0% | inhibition at 1 µM (IRAK4): 0% | inhibition at 1 µM (MST3): 0% | inhibition at 1 µM (PKC-IOTA): 0% | inhibition at 1 µM (MUSK): 0% | inhibition at 1 µM (TAOK3): 0% | inhibition at 1 µM (EPH-A8): 0% | inhibition at 1 µM (NDR1): 2% | inhibition at 1 µM (TEC): 4% | inhibition at 1 µM (TIE2): 0% | inhibition at 1 µM (EPH-B3): 0% | inhibition at 1 µM (CDK2-CYCLINA): 1% | inhibition at 1 µM (PLK4): 0% | inhibition at 1 µM (FER): 4% | inhibition at 1 µM (PRKD1): 0% | inhibition at 1 µM (PRKD3): 0% | inhibition at 1 µM (TSSK2): 0% | inhibition at 1 µM (LRRK2-G2019S): 0% | inhibition at 1 µM (PTK5): 0% | inhibition at 1 µM (FLT-1): 8% | inhibition at 1 µM (MAP4K2): 0% | IC50 (Adenosine 3 receptor): > 30 µM | IC50 [1]: > 30 µM | IC50 (Monoamine Oxidase A): > 30 µM | IC50 (Nicotinic (CNS) Receptor): > 30 µM | IC50 [2]: 7 µM | IC50 (Serotonin 5HT2A): > 30 µM
Structure (SMILES): O=C(Nc1nccs1)C(c1cc(F)ccc1O)N1Cc2ccccc2C1=O (centres unmarked) [EAI045, 2-(5-fluoro-2-hydroxyphenyl)-2-(1-oxo-2,3-dihydro-1H-isoindol-2-yl)-N-(1,3-thiazol-2-yl)acetamide]
tumor response [3]: did not respond
